Results on 3 compounds are retold here after ChEMBL document CHEMBL1159374, “Callysponginol sulfate A, an MT1-MMP inhibitor isolated from the marine sponge Callyspongia truncata” (J Nat Prod, 2003).

This test deals with Matrix metalloproteinase-14 (Homo sapiens, UniProt P50281). Nature of the test: Inhibition of truncated recombinant MT1-MMP expressed in Escherichia coli JM109 after 1 hr by fluorescence assay.

SMILES strings stand for the structures. Structures can show the parent of a compound that is named as a salt. The source made the active and inactive calls. No cut-off for these calls is given here.

For `CCCCCC/C=C\CCCCCCCCCCCCC#C[C@@H](O)C(=O)O`, the outcome was inactive.

With `CCCCCC/C=C\CCCCCCCCCCCCC#C[C@@H](OS(=O)(=O)O)C(=O)O` [CALLYSPONGINOL SULFATE A], the IC50 is 31.2 µM. In the case of `CC(CC[C@@H](C)[C@H]1CC[C@H]2[C@@H]3C[C@H](OS(=O)(=O)O)[C@H]4C[C@H](OS(=O)(=O)O)[C@@H](OS(=O)(=O)O)C[C@]4(C)[C@H]3CC[C@]12C)C(C)(C)C` (stereo partly drawn) [HALISTANOL SULFATE], the IC50 was 25.2 µM.

Broadly, the IC50 is the midpoint of a concentration-inhibition curve.
